For the assay, the target named is T1, large-conductance Ca2+-activated K+ (BKCa) channel (Rattus norvegicus, UniProt Q62976).
T1 construct: gene Kcnma1; native channel in inside-out membrane patches of GH3 cells
Kind of assay: single-channel patch clamp, inside-out; open probability […] to […] at […], no significant change at […]. It is filed as cell-based.

T1 sequence (Q62976 whole entry): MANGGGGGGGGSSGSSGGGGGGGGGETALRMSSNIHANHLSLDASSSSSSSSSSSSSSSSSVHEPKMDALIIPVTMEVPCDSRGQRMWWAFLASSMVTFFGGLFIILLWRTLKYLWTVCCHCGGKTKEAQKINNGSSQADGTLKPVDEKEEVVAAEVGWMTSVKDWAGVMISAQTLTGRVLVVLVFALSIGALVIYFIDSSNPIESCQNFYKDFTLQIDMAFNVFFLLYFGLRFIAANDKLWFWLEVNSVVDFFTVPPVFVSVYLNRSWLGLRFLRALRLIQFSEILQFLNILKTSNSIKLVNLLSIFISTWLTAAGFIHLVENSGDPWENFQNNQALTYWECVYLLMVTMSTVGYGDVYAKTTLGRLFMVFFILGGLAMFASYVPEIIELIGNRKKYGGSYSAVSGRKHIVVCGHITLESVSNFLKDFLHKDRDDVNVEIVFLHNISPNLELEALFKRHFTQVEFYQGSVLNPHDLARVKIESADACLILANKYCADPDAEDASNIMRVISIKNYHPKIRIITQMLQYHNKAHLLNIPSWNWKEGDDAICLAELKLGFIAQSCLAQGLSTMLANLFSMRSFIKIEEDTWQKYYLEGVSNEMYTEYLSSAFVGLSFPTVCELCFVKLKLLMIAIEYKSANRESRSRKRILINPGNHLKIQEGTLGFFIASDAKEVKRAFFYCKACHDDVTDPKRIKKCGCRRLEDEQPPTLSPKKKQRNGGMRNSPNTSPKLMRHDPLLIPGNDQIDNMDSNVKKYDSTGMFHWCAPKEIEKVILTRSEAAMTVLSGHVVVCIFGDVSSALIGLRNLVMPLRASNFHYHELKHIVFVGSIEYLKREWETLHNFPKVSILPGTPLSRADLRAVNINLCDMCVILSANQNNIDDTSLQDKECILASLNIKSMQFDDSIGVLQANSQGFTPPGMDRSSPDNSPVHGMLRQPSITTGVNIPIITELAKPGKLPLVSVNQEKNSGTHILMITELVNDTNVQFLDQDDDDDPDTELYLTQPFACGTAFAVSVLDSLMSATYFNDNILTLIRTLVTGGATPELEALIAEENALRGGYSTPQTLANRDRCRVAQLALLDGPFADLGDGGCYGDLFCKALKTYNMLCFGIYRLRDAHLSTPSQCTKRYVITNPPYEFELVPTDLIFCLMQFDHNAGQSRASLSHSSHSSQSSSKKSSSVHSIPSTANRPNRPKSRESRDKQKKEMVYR

Regarding `Cc1ccccc1C(=O)Nc1ccc(C(=O)N2CCCC(O)c3cc(Cl)ccc32)c(C)c1` (stereo not shown) [TLV, N-[4-[(7-chloro-2,3,4,5-tetrahydro-5-hydroxy-1H-1-benzazepin-1-yl)carbonyl]-3-methylphenyl]-2-methylbenzamide], the “single-channel patch clamp, inside-out; open probability 0.0191 to 0.0143 at 30” value was found to be 30 µM.
